Measurements taken from the NIST ThermoML archive (doi:10.1021/je200854k).

Conditions: Liquid, Capillary tube (Ostwald / Ubbelohde) method

FCC(F)(F)F [1,1,1,2-tetrafluoroethane]
viscosity [mPa·s]
Conditions	1000 kPa	2000 kPa	5000 kPa	10000 kPa	15000 kPa	20000 kPa	25000 kPa	30000 kPa	35000 kPa	40000 kPa
258.15 K	0.3251	–	0.3468	0.3675	0.3885	0.4094	0.4309	0.4502	0.4712	0.4996
278.14 K	0.2536	–	0.2678	0.2859	0.3033	0.3209	0.3381	0.3543	0.3712	0.3885
298.14 K	0.1962	–	0.2108	0.2273	0.2421	0.2567	0.2716	0.2876	0.3017	0.3169
318.13 K	–	0.1549	0.1656	0.1828	0.197	0.2111	0.2254	0.2393	0.2511	0.2647
338.13 K	–	0.1152	0.1288	0.1466	0.1618	0.1754	0.1893	0.2007	–	–

FC(F)(F)CC(F)(F)F [1,1,1,3,3,3-hexafluoropropane]
viscosity [mPa·s]
Conditions	1000 kPa	2000 kPa	5000 kPa	10000 kPa	15000 kPa	20000 kPa	25000 kPa	30000 kPa	35000 kPa	40000 kPa
253.15 K	0.5347	–	0.5621	0.5982	0.6363	0.671	0.7092	0.751	0.7898	0.8347
263.16 K	0.4612	–	0.4857	0.5184	0.5511	0.583	0.6154	0.6508	0.6835	0.7189
273.14 K	0.3999	–	0.4237	0.452	0.4821	0.5127	0.5412	0.5699	0.6012	0.6317
283.14 K	0.35	–	0.3722	0.3989	0.4259	0.4534	0.4798	0.5054	0.5325	0.5603
293.14 K	0.3074	–	0.3281	0.3534	0.3789	0.4034	0.4271	0.452	0.4757	0.5014
303.14 K	0.2708	–	0.2906	0.3141	0.3383	0.362	0.3838	0.4053	0.429	0.4513
313.14 K	0.2385	–	0.2585	0.2817	0.3041	0.3268	0.3467	0.3678	0.3897	0.41
323.13 K	0.21	–	0.2306	0.253	0.2742	0.295	0.3155	0.3353	0.3544	0.3744
333.13 K	0.1844	–	0.2046	0.2274	0.2481	0.2683	0.2868	0.3059	0.3248	0.3434
343.13 K	–	0.1669	0.1825	0.2044	0.2255	0.2447	0.2631	0.2805	0.2994	0.3154
353.13 K	–	0.1456	0.1618	0.1858	0.2064	0.2239	0.2427	0.2591	0.2761	0.2925
363.14 K	–	0.1248	0.1432	0.1663	0.1863	0.2051	0.2226	0.2395	0.2555	0.2713
373.14 K	–	0.1074	0.1287	0.1531	0.1718	0.1886	0.2056	0.2222	0.2366	0.2495

FC(F)CC(F)(F)F [1,1,1,3,3-pentafluoropropane]
viscosity [mPa·s]
Conditions	1000 kPa	2000 kPa	5000 kPa	10000 kPa	15000 kPa	20000 kPa	25000 kPa	30000 kPa	35000 kPa	40000 kPa
263.15 K	0.679	–	0.7113	0.7526	0.7951	0.8369	0.8778	0.9236	0.9686	1.015
273.14 K	0.5811	–	0.6083	0.6456	0.6801	0.717	0.7534	0.7902	0.8293	0.8685
283.14 K	0.4999	–	0.5252	0.5564	0.5887	0.6204	0.6519	0.6847	0.7184	0.7497
293.14 K	0.4344	–	0.4571	0.4859	0.5143	0.5433	0.5704	0.5998	0.6291	0.6589
303.14 K	0.3799	–	0.4011	0.4282	0.4534	0.4796	0.5048	0.5306	0.5573	0.5829
313.14 K	0.3343	–	0.3538	0.379	0.4035	0.427	0.4502	0.4745	0.4975	0.5211
323.13 K	0.2952	–	0.3139	0.3372	0.3595	0.3816	0.4029	0.425	0.4464	0.4694
333.13 K	0.2601	–	0.2788	0.3009	0.3232	0.3433	0.3637	0.3837	0.4048	0.4241
343.13 K	0.2301	–	0.2484	0.2698	0.29	0.31	0.3304	0.3488	0.3686	0.3872
353.13 K	0.2053	–	0.2226	0.2428	0.2627	0.2819	0.2999	0.3186	0.3361	0.3537
363.14 K	–	0.1838	0.1972	0.219	0.2389	0.2561	0.2746	0.2918	0.3084	0.325
373.14 K	–	0.1612	0.1758	0.1977	0.2165	0.2346	0.2518	0.2679	0.2839	–

Cc1ccccc1 [toluene]
viscosity [mPa·s]
Conditions	248.16 K	273.15 K	298.14 K	323.13 K	348.13 K
1000 kPa	1.19	0.7764	0.5581	0.4252	0.3356
10000 kPa	1.285	0.8352	0.6005	0.4563	0.3616
20000 kPa	1.397	0.9052	0.644	0.4908	0.3907
30000 kPa	1.521	0.9742	0.6909	0.5267	0.4198
40000 kPa	–	1.045	0.7419	0.5662	0.4497
